Test results published in patent publication US8492515B2 (priority 2008, dated 2013).
≈ marks a conversion by molar mass, not a printed value. Square brackets hold non-standard residues; d marks the D form. Peptide text beside a SMILES is read from it. Ac6c = NC1(C(=O)O)CCCCC1

Columns and labels:
[1] = system: Salmonella typhimurium isolates; settings: murium isolates
[2] = assay type: in vitro ADME, CD-1 mice
Description: Female CD-1 mice of 8 weeks were retroorbitally bled and 6 μg A3-APO peptide dissolved in 10 μL phosphate buffered saline (PBS) was immediately added to approximately 100 μL retrieved blood. After 30 min incubation at 37° C., the cells were removed by 10 min centrifugation at 2,000 rpm, 50 μL PBS was added to 50 μL of the plasma, followed by addition of 45 μL of 15% TCA. The rest of the analysis was done as described for the serum stability studies. Control blood was treated identically without A3-APO peptide addition. […] While the double charged ion at 2519 M/z from the serum studies could not be detected, the two serum components at 1798 and 2969 M/z and two new peaks at 2321 and 2577 M/z were present. These latter peptide species correspond to stable early degradation products.
Ex vivo blood stability studies were repeated on Chex1-Arg20 according to the protocol described above “Stability of Peptide A3-APO in Whole Blood”. […] The only degradation product that could be detected, at about one third of the peak height of the Chex1-Arg20 starting material, was at 2321 M/z, representing a fragment with the C-terminal arginine missing. Apparently this cleavage product is the Chex1-Val19 fragment observed for peptide A3-APO when the stability studies were done in blood ex vivo (see and compare with the lower panel of FIG. 2 and Table 1). […]

[3] = system: Escherichia coli isolates

CC(C)C[C@H](NC(=O)[C@H](Cc1ccc(O)cc1)NC(=O)[C@@H]1CCCN1C(=O)[C@H](CCCNC(=N)N)NC(=O)[C@@H]1CCCN1C(=O)[C@H](CCCCN)NC(=O)[C@H](CC(=O)O)NC(=O)[C@@H]1CCCN1C(=O)[C@H](CCCNC(=N)N)NC(=O)C1(N)CCCCC1)C(=O)N1CCC[C@H]1C(=O)N[C@@H](CCCNC(=N)N)C(=O)N1CCC[C@H]1C(=O)N[C@@H](CCCNC(=N)N)C(=O)N1CCC[C@H]1C(=O)N1CCC[C@H]1C(=O)N[C@@H](CCCNC(=N)N)C(=O)N1CCC[C@H]1C(=O)N[C@H](C(=O)N[C@@H](CCCNC(=N)N)C(=O)O)C(C)C [Chex1-Arg20, Chex-Arg-Pro-Asp-Lys-Pro-Arg-Pro-Tyr-Leu-Pro-Arg-Pro-Arg--Pro-Pro-Arg-Pro-Val-Arg] (H-[Ac6c]RPDKPRPYLPRPRPPRPVR-OH; N-terminus and C-terminus assumed)
minimal bactericidal concentrations (MBC) [1]: 4 µg/mL (≈ 1.62 µM) | peak height of the only degradation product (2321 M/z) relative to starting material [2]: about one third | minimal bactericidal concentrations (MBC) [3]: 2 to 32 µg/mL
